# Data reported in patent US6498139B1, “Remedies for diseases caused by insulin resistance” (Daiichi Pharmaceutical Co., Ltd., priority 1997, dated 2002).
# Test system: 14-3-3 protein binding to IRS-1
# Assay: Amount of 14-3-3 protein binding to IRS-1 in HepG2 hepatoma cells overexpressing IRS-1
# Assay type: cell-based
# Conditions: IRS-1 overexpressed by adenovirus expression system
row,Molecule,amount of 14-3-3 protein binding to IRS-1
1,insulin,not changed
2,C=C1[C@@H](O)[C@@H]2O[C@]3(CC[C@H](/C=C/[C@@H](C)[C@@H]4CC(C)=C[C@@]5(O[C@H](C[C@@](C)(O)C(=O)O)CC[C@H]5O)O4)O3)CC[C@H]2O[C@@H]1[C@@H](O)C[C@H](C)[C@H]1O[C@@]2(CCCCO2)CC[C@H]1C [okadaic acid],significantly increased
